Reference: patent US20080015138A1, “Metal binding compounds, metal binding compositions, and their uses” (AFFINERGY, INC., priority 2006, published 2008)
Values belong to the substance of their own block, whether it stands above or below them. Square brackets hold non-standard residues; d marks the D form. Ends that are not written are not given here.

What was measured:
[1] = Peptide binding assay on stainless steel; settings: for binding to stainless steel (in words): biotinylated peptides
Protocol: (§1) Relative binding strengths (affinities) of the peptides to metal, also used as a measure of binding specificity, were determined by testing serial dilutions of the peptide for binding to a target substrate comprising metal, as represented by titanium or steel. Plotting the absorbance observed across the concentration range for each peptide sequence yielded a binding curve of the peptides to its target substrate from which can be determined an EC50 (e.g., the concentration of peptide that gives 50% of the maximum signal in the binding curve is used as an estimate of the affinity of the peptide for the target). Preferred are peptides that bind to the selected target substrate (in this case, metal) with binding specificity, preferably with an EC50 of less than or equal to about 1 μM, and more preferably, in the nanomolar range (e.g., <0.1 μM). […] A typical binding assay for titanium (note, a different substrate may be substituted for titanium in the assay) may be perofrmed according to the following procedure.
(§2) Briefly, 5/32-inch diameter Grade 200 titanium beads were washed by sonication in acetone for 15 minutes, and the beads were allowed to dry. One bead was added to each well of a 96-well polypropylene plate. Two hundred fifty (250) μL of 1% BSA in PBS was added to each well of the plate. The surface of the wells was blocked by incubation for 1 hour at 20° C. with shaking at 500 rpm. The plate was washed three times with 250 μL of buffer-T per well. A 1:3 dilution series of each of the peptides was prepared using PBS as a diluent, starting at a peptide concentration of 20 μM, and going down to 0.0001 μM. A 200 μL sample of each dilution was added to wells of the plate. The plate was incubated for 1 hour at 20° C. with shaking at 500 rpm. The beads were washed three times with 250 μL of buffer-T per well. Two hundred (200) μL of streptavidin-alkaline phosphatase (“streptavidin AP”) reagent, at a dilution of 1:2000 in buffer+1% BSA, was added to each well. The plate was incubated for 30 minutes at room temperature. The beads were washed three times with 250 μL of buffer-T per well. Two hundred (200) μL of color development reagent (PNPP, p-nitrophenol phosphate) was added to each well. After color had developed (10 minutes), the samples were transferred to a clear 96-well plate and the absorbance at 405 nm determined. A binding curve was generated by plotting the absorbance at 405 nm against the peptide concentration (μM).
(§3) In this embodiment, illustrated are additional characterizations of the binding specificities of examples of metal binding domains, and peptides containing the metal binding domains, according to the present invention to various substrates, such as metal (as illustrated by stainless steel, zirconium metal alloy […]) versus binding to a polymer (as illustrated by polystyrene). Using the methods illustrated in Example 2, binding specificities for the various substrates were determined; with the results illustrated in Table 6 (Note: “none” means any binding detected was very low, and not above background binding (such as by a control peptide with no binding specificity for metal) in the binding assay; and thus, a binding curve for calculation of an EC50 could not be generated).

[2] = Peptide binding assay on polymer (polystyrene); settings: Table 6, polymer illustrated by polystyrene
Protocol: as §1, §2, §3

[3] = Peptide binding assay on glass; settings: Table 6
Protocol: as §1, §2, §3

[4] = Peptide binding assay on titanium beads (streptavidin-AP detection, binding curve EC50)
Protocol: as §1, §2

[5] = Peptide binding assay on zirconium metal alloy; settings: Table 6
Protocol: as §1, §2, §3

[6] = Table 6, read-out: EC50 (μM) stainless steel
[7] = Table 4, second-generation peptides, biotinylated at C-terminal lysine, binding to titanium, read-out: EC50
[8] = Table 5, spacing between triplets, biotinylated peptides, binding to titanium, read-out: EC50
[9] = Table 3, substituted peptides labeled with biotin, binding to titanium, read-out: EC50

EC50 [1, 6]: < 0.5 µM | EC50 [2]: > 20 µM | EC50 [3]: < 0.5 µM | EC50 [4, 7]: 45 nM | EC50 [5]: < 0.5 µM
Substance: SKHKGGHKHGSSGK [SEQ ID NO: 73]

EC50 [4, 8]: 60 nM
Substance: SKHKGKHKGSSGK [SEQ ID NO: 82]

EC50 [1, 6]: < 0.5 µM | EC50 [2]: > 20 µM | EC50 [3]: < 0.1 µM | EC50 [4, 7]: 110 nM | EC50 [5]: < 0.1 µM
Substance: SKHKGGGGKHKGSSGK [SEQ ID NO: 75]

binding to stainless steel (in words) [1]: showed binding | binding to titanium (in words) ([4]; biotinylated peptides): showed binding
Substance: ssCDQNDIFYTSKKSHKSHCsr ([code s][code s]CDQNDIFYTSKKSHKSHC[code s][code r]; not fully specified; printed as ssCDQNDIFYTSKKSHKSHCsr; cysteine pairing not given here) [SEQ ID NO: 49]

EC50 [1, 6]: < 0.5 µM | EC50 [2]: > 20 µM | EC50 [3]: < 0.5 µM | EC50 [4, 7]: 26 nM | EC50 [4, 8]: 26 nM | EC50 [5]: < 0.1 µM
Substance: SKHKGGKHKGSSGK [SEQ ID NO: 71]

EC50 [1, 6]: < 1 µM | EC50 [2]: > 20 µM | EC50 [3]: < 1 µM | EC50 [4, 7]: 200 nM | EC50 [5]: < 1 µM
Substance: SHKHGGHKHGSSGK [SEQ ID NO: 77]

EC50 [4, 9]: 50 nM
Substance: SHKHPVTPRFFVVYSK [SEQ ID NO: 65]

EC50 [1, 6]: < 0.5 µM | EC50 [2]: > 20 µM | EC50 [3]: < 0.5 µM | EC50 [4, 7]: 60 nM | EC50 [5]: < 0.1 µM
Substance: SHKHGGKHKGSSGK [SEQ ID NO: 74]

EC50 [4, 7]: 500 nM
Substance: SHHKGGHHKGSSGK- (not fully specified; printed as SHHKGGHHKGSSGK-; also: name ends with '-': unspecified C-terminal conjugate) [SEQ ID NO: 78]

EC50 [1, 6]: < 0.1 µM | EC50 (μM) Polymer [2]: None | EC50 [3]: < 0.05 µM | EC50 [4, 7]: 35 nM | EC50 [5]: < 0.1 µM
Substance: SHKHGGHKHGGHKHGSSGK [SEQ ID NO: 72]

EC50 [4, 7]: 150 nM
Substance: SHKHGGGGHKHGSSGK [SEQ ID NO: 76]

EC50 [1, 6]: < 0.1 µM | EC50 [2]: > 20 µM | EC50 [3]: < 0.1 µM | EC50 [4, 7]: 13 nM | EC50 [5]: < 0.1 µM
Substance: SKKHGGKKHGSSGK [SEQ ID NO: 70]

EC50 [4, 9]: 600 nM
Substance: SHKHPVTPRFFVVGSK [SEQ ID NO: 68]

EC50 [4, 9]: 800 nM
Substance: SHKHPVTPRFFVVNSK [SEQ ID NO: 69]

EC50 [4, 9]: 4000 nM
Substance: SHKHPVTPRFFVVESK [SEQ ID NO: 59, Parent]

binding to stainless steel (in words) [1]: showed binding | binding to titanium (in words) ([4]; biotinylated peptides): showed binding
Substance: ssCSHNHHKLTAKHQVAHKCsr ([code s][code s]CSHNHHKLTAKHQVAHKC[code s][code r]; not fully specified; printed as ssCSHNHHKLTAKHQVAHKCsr; cysteine pairing not given here) [SEQ ID NO: 48]

EC50 [4, 9]: 50 nM
Substance: SHKHPVTPRFFVVKSK [SEQ ID NO: 66]

EC50 [4, 9]: 3000 nM
Substance: SHKHPVTPRGGGGESK [SEQ ID NO: 62]

binding to stainless steel (in words) ([1]; listed as 47): showed binding | binding to stainless steel (in words) ([1]; listed as SEQ ID NO:47): strongest binding | EC50 ([1]; biotinylated phage-derived peptide, text of Example 2, read-out: EC50 on stainless steel): ~1 µM | binding to titanium (in words) ([4]; biotinylated peptides, listed as 47): showed binding | binding to titanium (in words) ([4]; biotinylated peptides, listed as SEQ ID NO:47): strongest binding | EC50 ([4]; biotinylated phage-derived peptide, text of Example 2, read-out: EC50 on titanium): ~800 nM
Substance: ssCNCYVTPNLLKHKCYKICsr ([code s][code s]CNCYVTPNLLKHKCYKIC[code s][code r]; not fully specified; printed as ssCNCYVTPNLLKHKCYKICsr; cysteine pairing not given here) [SEQ ID NO: 47]

EC50 [4, 7]: 4000 nM | binding to titanium (in words) ([4]; biotinylated peptides): comparably poorer binding affinity
Substance: SHGHGGHGHGSSGK [SEQ ID NO: 80]

EC50 [1, 6]: < 0.05 µM | EC50 [2]: > 20 µM | EC50 [3]: < 0.05 µM | EC50 [4, 7]: 25 nM | EC50 ([4]; Table 7, peptide monomer versus branched polymers, binding to titanium, read-out: EC50): 25 nM | EC50 [5]: < 0.05 µM
Substance: SKHKGGKHKGGKHKGSSGK [SEQ ID NO: 79]

EC50 [4, 9]: 2000 nM
Substance: SHKHPVTPRGGVVESK [SEQ ID NO: 60]

binding to stainless steel (in words) [1]: showed binding | binding to titanium (in words) ([4]; biotinylated peptides): showed binding
Substance: ssSDKCHKHWYCYESKYGGSsr ([code s][code s]SDKCHKHWYCYESKYGGS[code s][code r]; cysteine pairing not given here; also: biotinylated (site not given here)) [SEQ ID NO: 51]

EC50 [4, 9]: 200 nM
Substance: SHKHPVTPRFFVVVSK [SEQ ID NO: 67]

EC50 [4, 8]: 60 nM
Substance: SKHKKHKGSSGK [SEQ ID NO: 81]

EC50 [4, 8]: 75 nM
Substance: SKHKGGGKHKGSSGK [SEQ ID NO: 83]

EC50 [4, 9]: 3000 nM
Substance: SHKHGGGGRFFVVESK [SEQ ID NO: 61]

EC50 [4, 8]: 70 nM
Substance: SKHKGGGGGKHKGSSGK [SEQ ID NO: 84]

EC50 [4, 9]: > 100000 nM
Substance: SGGGPVTPRFFVVESK [SEQ ID NO: 64]

EC50 [4, 9]: > 50000 nM
Substance: SHKHPVTPGFFVVESK [SEQ ID NO: 63]
